Values joined by “and” are separate entries in the source; they are usually repeats but may differ in a detail not shown here. Equal values may be shown once.
Columns and labels:
wild-type PXR.1 = biological target: T1, wild-type PXR.1 (Homo sapiens, UniProt O75469); assay: PXR luciferase reporter assay in HEK293T cells, wild-type PXR.1; assay type: cell-based; conditions: 10 μM, replicate wells
T1 construct: expressed in transfected cells; host or cells: HEK293T
Protocol: After 24‐h transfection using Lipofectamine® LTX ([…] of plasmid), cells were exposed to FKK5 for 24 h. […] The data are expressed as mean ± SD RLU (relative light units from luciferase assay) normalized to β‐Gal activity in the same well. Differences were tested using 2‐way ANOVA with Tukey's multiple comparison test, and P < 0.05 was considered significant (*).

pCAF = biological target: T2, pCAF (Homo sapiens, UniProt Q92831); assay: Histone acetyltransferase assay pCAF (Reaction Biology); assay type: biochemical; conditions: substrate Histone H3, replicates
T2 construct: purchased Reaction Biology Corp; host or cells: E. coli
Protocol: The following […] assays (HDAC, SIRT1, PRMT1, PARP1, p300, pCAF) were performed by Reaction Biology Corp. FKK6 was screened at a single concentration of 10 μM in duplicate in two separate experiments. The appropriate controls for the individual assays are published. The overall […]
enzyme activity in the assay is reported as a % activity in DMSO control wells. Control IC50 […]
Briefly, for the Sirtuin (SIRT1) assay, human SIRT1 (GenBank
Accession No. NM012238) full -length N-terminal His-tag protein (MW 83.2 kDa) was purified after expression in E. coli. The reaction buffer was freshly prepared and constituted 50 mM Tris-HC l ( p H 8), 137 mM NaCl, 2.7 mM KCl, 1 mM MgCl2, and just before use, 1 mg/mL BSA and 1% DMSO was added. The substrate was a fluorogenic acetylated peptide of p53 residues 379-382 (RHKK (Ac)- AM C) . […]
8), 50 mM NaCl, 0.1 mM EDTA, 1 mM DTT, 1 mM PMSF, and 1% DMSO. […] The radioactivity in mixture is detected on washed filter paper using a scintillation counter. […]
Reader (Perkin Elmer) (Ex 360 nm/ Em 460 nm). For all enzyme activity assays, the percentage of enzyme activity (relative to DMSO controls) and IC50 values were calculated using GraphPad Prism 4 program (sigmoidal dose response equations). […]

pxr -/- mice = assay: DSS-induced acute colitis in pxr -/- mice; assay type: in vivo, mouse
Protocol: For these studies, 7‐ to 8‐week‐old female (DeVoss & Diehl, 2014) hPXR (mice expressing the human PXR gene) and pxr ^−/− mice (C57BL/6 background) were bred and each genotype was separated into two treatment groups using a random allocation method via coin toss—(i) n = 3 control (0.8% DMSO in 100 μl drinking water) and (ii) n = 3 FKK6 (200 μM (0.4 mg/kg/day) in 0.8% DMSO in 100 μl drinking water) administered once per day via oral gavage, and via intrarectal gavage for a total of 10 consecutive days The dose was chosen based on the extrapolation of the total dose delivered over 10 days to mice (~ 4 mg/kg), which is equivalent to that delivered to mice for determining target gene expression over 3–5 doses (3–5 mg/kg). […] Fecal pellets were collected prior to the initiation of the treatment protocol. All mice were starved overnight (12 h) to allow for smooth intrarectal delivery; however, the mice were allowed to feed ad libitum during the day. After 10 days, the mice were sacrificed and organs/tissues/feces harvested for further study. Prior to necropsy, mice were administered FITC‐dextran, and mouse serum was collected for the FITC‐dextran assay as previously described (Vetizou et al, 2015). The experimenter was not blinded to treatment allocation; however, the pathologist (KS) evaluating histologic scores was blinded to treatment allocation. […]

T1 sequence (O75469 whole entry): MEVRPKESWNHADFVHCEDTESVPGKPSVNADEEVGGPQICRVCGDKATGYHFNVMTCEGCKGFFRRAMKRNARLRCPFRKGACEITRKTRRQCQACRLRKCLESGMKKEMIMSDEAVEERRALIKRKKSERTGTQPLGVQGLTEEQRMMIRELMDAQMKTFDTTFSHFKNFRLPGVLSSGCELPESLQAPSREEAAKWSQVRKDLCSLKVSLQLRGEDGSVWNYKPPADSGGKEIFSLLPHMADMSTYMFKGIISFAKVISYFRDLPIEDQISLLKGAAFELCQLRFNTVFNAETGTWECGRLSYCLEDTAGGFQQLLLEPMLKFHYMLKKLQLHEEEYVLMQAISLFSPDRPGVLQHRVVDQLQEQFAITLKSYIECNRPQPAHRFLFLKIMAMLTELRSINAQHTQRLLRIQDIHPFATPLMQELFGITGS
T2 sequence (Q92831 492-658): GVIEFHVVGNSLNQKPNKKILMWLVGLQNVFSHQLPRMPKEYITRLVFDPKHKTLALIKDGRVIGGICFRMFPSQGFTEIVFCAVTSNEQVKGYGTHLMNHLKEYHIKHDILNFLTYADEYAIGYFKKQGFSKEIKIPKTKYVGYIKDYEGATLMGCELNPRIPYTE

C#CCC(O)(c1ccncc1)c1cc2ccccc2n1S(=O)(=O)c1ccccc1 (centres unmarked) [FKK6]
PXR reporter activity, RLU/B-Gal (wild-type PXR.1): 49029.5 RLU/B-Gal and 34153.4 RLU/B-Gal and 41512.1 RLU/B-Gal and 34385.8 RLU/B-Gal | % Enzyme Activity to DMSO controls (pCAF; 10 μM): 101.68% and 104.61% and 104.47% | remaining activity at 10 µM (pCAF; read-out: % Enzyme Activity to DMSO controls): 100% | weight loss, colon length, inflammation score, lipocalin 2, FITC-dextran levels (pxr -/- mice; FKK6 200 μM, 10 days): did not alter | % weight loss from baseline (day 10) (pxr -/- mice; pxr -/- mice, DSS colitis, Fig 6a, individual values): 24% and 25% and 22%

— publication PMC7136958, “Targeting the pregnane X receptor using microbial metabolite mimicry” (EMBO Molecular Medicine, 2020)
